In paper PMC6509344, “Novel CMKLR1 Inhibitors for Application in Demyelinating Disease” (Scientific Reports, 2019):
Where a name gives a salt, the structure may show the parent alone. Read-outs that look alike come from different tables or passages of the source.

Assays:
[1] = molecular target: T1, CMKLR1 (Homo sapiens, UniProt Q99788); assay: β-arrestin recruitment assay (chemerin-dependent β-arrestin2 signaling); type: cell-based; settings: for IC50: CMKLR1-CHO-β-Arrestin cells, 20 nM chemerin, read-out: β-arrestin IC50 mean ± SEM (n)
T1 construct: host or cells: CHO-K1 (PathHunter CMKLR1 β-Arrestin cells)
T1 sequence (Q99788 1-373): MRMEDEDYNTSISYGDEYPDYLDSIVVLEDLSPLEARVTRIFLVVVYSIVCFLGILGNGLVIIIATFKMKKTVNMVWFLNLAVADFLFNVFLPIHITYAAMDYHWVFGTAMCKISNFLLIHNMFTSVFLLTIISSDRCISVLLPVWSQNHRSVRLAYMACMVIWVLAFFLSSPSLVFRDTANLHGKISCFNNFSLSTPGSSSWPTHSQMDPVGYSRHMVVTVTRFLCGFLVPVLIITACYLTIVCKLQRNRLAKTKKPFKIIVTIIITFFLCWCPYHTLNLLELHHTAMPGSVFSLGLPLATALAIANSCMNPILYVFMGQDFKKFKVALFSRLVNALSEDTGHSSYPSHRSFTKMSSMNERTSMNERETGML
Description: DiscoverX PathHunter® CHO-K1 CMKLR1 β-Arrestin Cells were grown in RPMI lacking phenol red (Gibco, Life Technologies), supplemented with L-glutamine, penicillin-streptomycin, sodium pyruvate, non-essential amino acid, BCS, hygromycin, and G418-sulfate. CMKLR1-CHO-β-Arrestin cells were seeded in 96 well plates at 1 × 10^5 cell/ml- 100 ul/well and incubated overnight at 37 °C, 5% CO2. […] (α-NETA and test compounds were reconstituted in DMSO; final DMSO concentration in each well was 0.1%). After 10 min, 5 ul of recombinant human chemerin (R&D Systems) at a final concentration of 20 nM was added to each well. Plates were incubated for 90 min at 37 °C, 5% CO2. Media was then removed and 50 ul of chemiluminescent substrate (Tropix Gal-Screen, Applied Biosciences) was added. The plate was incubated for 1 hr at RT and luminescence was detected using the SpectraMax M5 plate reader (Molecular Devices). For each independent trial (single replicate dose curves), data was normalized to the maximum signal per compound tested and an IC50 value was generated using GraphPad Prism software. The average IC50 value for n independent trials (as specified in the table) is reported.

[2] = tested on: (hu)CMKLR1 L1.2 cells; assay: Chemotaxis assay toward huChemerin; type: cell-based, human; settings: for IC50: (hu)CMKLR1 L1.2 cells migrating toward huChemerin, 2 h, read-out: Chemotaxis IC50 mean ± SEM (n)
Description: (hu)CMKLR1 transfectants (generated in L1.2 pre-B cell lymphoma cells) were grown in RPMI 1640 (Corning) supplemented with L-glutamine, penicillin-streptomycin, and 10% BCS and G418-sulfate (KSE Scientific). DiscoverX PathHunter® CHO-K1 CMKLR1 β-Arrestin Cells were grown in RPMI lacking phenol red (Gibco, Life Technologies), supplemented with L-glutamine, penicillin-streptomycin, sodium pyruvate, non-essential amino acid, BCS, hygromycin, and G418-sulfate.
(hu)CMKLR1 L1.2 cells at 1 × 10^6 cell/ml were treated with 5 mM sodium butyrate (Sigma) overnight to induce hCMKLR1 expression. The next day, cells were washed in migration media (RPMI + 0.5%BSA) and resuspended at 1.5–3 × 10^6 cell/ml. Cells were pre-incubated at RT for 10 min with various concentrations of α-NETA or test compounds (α-NETA and test compounds were reconstituted in DMSO; final DMSO concentration in each well was 0.1%). 100 ul of cells were added to the upper chamber of a 24-well transwell plate (5 um pore size, Costar). Cells were allowed to migrate toward huChemerin ([…] in migration media, bottom chamber) for 2 h, 37 °C, 5% CO2. The number of migrated cells was quantified by flow cytometry (BD LSR2), and live cells were distinguished based on FSC × SSC properties. The background for this assay was typically low with 0 cells migrating to the buffer alone. For each independent trial, data was normalized to the maximum migration per compound tested and an IC50 value was generated using GraphPad Prism software. The average IC50 value for n independent trials (as specified in the table) is reported.

[3] = tested on: C57BL/6 mice with EAE; assay: Experimental autoimmune encephalomyelitis (EAE), MOG35–55/CFA immunization; type: in vivo, mouse; settings: for Day of onset (Mean ± SEM) / Maximum Score (Mean ± SEM) / AUC (Mean ± SEM) of clinical score: Table 4, 10 mg/kg daily to D21, n = 8; for Maximum Score (Mean ± SEM): clinical score 0-5; for AUC (Mean ± SEM) of clinical score: mean clinical score x day
Description: C57BL/6 mice were purchased from The Jackson Laboratory. […] Animal experiments were conducted in accordance with approved Veterans Affairs, National Institutes of Health, and Institutional Animal Care and Use Committee guidelines.
CFA consisted of 5 mg/ml mTB (Mycobacterium-tuberculosis H37 Ra, BD Difco) in IFA (Incomplete Freund’s Adjuvant, Sigma). MOG35–55 was reconstituted at 2 mg/ml in PBS. Mice also received 200 ng pertussis toxin (List Biological Laboratories, Inc) by i.p. injection at the time of immunization and two days later. […] For a direct comparison to α-NETA, the DMF and compound doses were also 10 mg/kg in 10% captisol. Mice were monitored daily for clinical disease and scored (0 = normal/healthy, 1 = limp tail, 2 = hindlimb weakness, 3 = hindlimb paralysis, 4 = hindlimb and forelimb paralysis, 5 = moribund/dead).

[4] = Table 3 quaternary ammonium salts

| Compound | IC50 ([1]; Table 2 tertiary amines) | IC50 [1, 4] | IC50 [2] | also measured |
| --- | --- | --- | --- | --- |
| CN(C)CCC(=O)c1ccc2ccccc2c1 [Compound 7] | 18.5 µM | – | – | – |
| CN(C)CCC(=O)C1CCCCC1 [Compound 20] | > 100 µM | – | – | activity in β-arrestin2 assay (in words) [1]: complete loss of activity |
| COc1cccc(C(=O)CCN(C)C)c1 [Compound 18] | 64 µM | – | – | – |
| COc1ccc(C(=O)CCN(C)C)cc1 [Compound 17] | > 100 µM | – | – | – |
| CCN(C)CCC(=O)c1ccc2ccccc2c1 [Compound 9] | 39.6 µM | – | – | – |
| CCCCN(C)CCC(=O)c1ccc2ccccc2c1 [Compound 10] | 44.5 µM | – | – | – |
| CCN(CC)CCC(=O)c1ccc2ccccc2c1 [Compound 8] | 71.3 µM | – | – | – |
| C[N+](C)(C)CCC(=O)C1CCCCC1 [Compound 25] | – | 11.9 µM | > 100 µM | – |
| C[N+](C)(C)CCS(=O)(=O)c1ccccc1 [Compound 35] | – | – | – | activity in β-arrestin2 assay (in words) [1]: inactive |
| COC(=O)/C=C/C(=O)OC [Tecfidera, dimethyl fumarate, reference compound] | – | – | – | day of EAE onset (mean ± SEM) ([3]; Fig. 1 study, 10 mg/kg daily in 10% captisol, s.c., d29 onset assumed for 2 α-NETA mice): 14 ± 2 days |
| COc1ccc2cc(C(=O)CCN(C)C)ccc2c1 [Compound 11] | > 100 µM | – | – | – |

The next lines start with results.

| IC50 ([1]; Table 2 tertiary amines) | IC50 [1, 4] | IC50 [2] | Compound | also measured |
| --- | --- | --- | --- | --- |
| – | 1.5 ± 0.3 µM | 20 ± 6.2 µM | COc1ccc2cc(C(=O)CC[N+](C)(C)C)ccc2c1 [Compound 32] | – |
| 6.2 ± 2.5 µM | – | – | COc1ccc2ccccc2c1C(=O)CCN(C)C [Compound 6] | Day of onset (Mean ± SEM) [3]: 14.5 ± 0.4; Maximum Score (Mean ± SEM) [3]: 2.4 ± 0.2; AUC (Mean ± SEM) of clinical score [3]: 25.2 ± 4.0 |
| – | 2.1 ± 1.1 µM | 6.8 µM | COc1cccc(OC)c1C(=O)CC[N+](C)(C)C.[I-] [Compound 30] | activity in β-arrestin2 assay (in words) [1]: highly active; activity in chemotaxis assay (in words) [2]: highly active |
| 10.3 ± 4.5 µM | – | – | COc1cccc(OC)c1C(=O)CCN(C)C [Compound 19] | – |
| > 100 µM | – | – | COc1ccccc1C(=O)CCN(C)C [Compound 16] | – |
| – | 3.8 ± 1.7 µM | 14.6 ± 4.8 µM | COc1cccc(C(=O)CC[N+](C)(C)C)c1 [Compound 28] | – |
| – | 5.6 ± 0.7 µM | > 100 µM | C[N+](C)(C)CCC(=O)c1ccccc1.[I-] [Compound 24] | activity in chemotaxis assay (in words) [2]: did not show any activity |
| – | 0.6 ± 0.3 µM | 10.7 µM | COc1ccc2ccccc2c1C(=O)CC[N+](C)(C)C [Compound 33] | – |
| – | 4.8 ± 1.6 µM | 17.4 ± 2.2 µM | COc1ccc(C(=O)CC[N+](C)(C)C)c(OC)c1 [Compound 29] | – |
| – | 6 ± 2.2 µM | > 100 µM | COc1cc(OC)cc(C(=O)CC[N+](C)(C)C)c1 [Compound 31] | – |
| – | 1.9 ± 0.2 µM | 4.5 ± 1.5 µM | COc1ccc(C(=O)CC[N+](C)(C)C)cc1.[I-] [Compound 27] | activity in β-arrestin2 assay (in words) [1]: highly active; activity in chemotaxis assay (in words) [2]: highly active; Day of onset (Mean ± SEM) [3]: 16.0 ± 0.9; Maximum Score (Mean ± SEM) [3]: 2.1 ± 0.1^¶; AUC (Mean ± SEM) of clinical score [3]: 24.3 ± 4.2 |
| – | 2.5 ± 0.9 µM | 24.1 µM | C[N+](C)(C)CCC(=O)c1ccc2ccccc2c1 [Compound 23] | – |
| – | 2.9 ± 1.6 µM | 7.2 µM | COc1ccccc1C(=O)CC[N+](C)(C)C.[I-] [Compound 26] | activity in β-arrestin2 assay (in words) [1]: highly active; activity in chemotaxis assay (in words) [2]: highly active |
